Drawing on ChEMBL document CHEMBL4152276, “Design, synthesis and biological evaluation of N-phenyl-(2,4-dihydroxypyrimidine-5-sulfonamido)benzoyl hydrazide derivatives as thymidylate synthase (TS) inhibitors and as potential antitumor drugs” (Eur J Med Chem, 2018), this text covers IC50 for 38 compounds.

pIC50: −log10 of the molar value.

Type in all cases: functional, cell-based
One test concerns A549. Nature of the test: Antiproliferative activity against human A549 cells after 24 hrs by MTT assay. Particulars: A549, 24 h. On the technique in general: Tetrazolium assays rely on reduction of a dye to a coloured formazan, in cell work by metabolically active cells.
Another test deals with OVCAR-3. Nature of the test: Antiproliferative activity against human OVCAR3 cells after 24 hrs by MTT assay. Particulars: OVCAR-3, 24 h.
The test system of the next test is SGC-7901. Nature of the test: Antiproliferative activity against human SGC7901 cells after 24 hrs by MTT assay. Conditions: SGC-7901, 24 h.
For the next test, the system named is MDA-MB-231. The experiment in a line: Antiproliferative activity against human MDA-MB-231 cells after 24 hrs by MTT assay. Particulars: MDA-MB-231, 24 h.

Usually pIC50 stands for the IC50 on a negative log10 scale, so that one unit is a factor of ten. Low values mean a large IC50, high ones a small IC50. With `O=C(NNC(=O)c1ccccc1NS(=O)(=O)c1cnc(O)nc1O)c1ccccc1Cl`, the negative logarithm of the IC50 (pIC50) in the test with A549 is 5.28; in the test with OVCAR-3 it was 4.74; in the test on SGC-7901 it was 5.62; with MDA-MB-231, 5.08.

For the compound `O=C(NNc1cccc(Cl)c1)c1ccccc1NS(=O)(=O)c1cnc(O)nc1O`, the negative logarithm of the IC50 (pIC50) with A549 was 5.28; in the test on OVCAR-3 it was 5.26; in the test on SGC-7901, 4.96; with MDA-MB-231, 4.93.

For `O=C(NNc1ccc(F)cc1)c1ccccc1NS(=O)(=O)c1cnc(O)nc1O`, the pIC50 with A549, in the test on OVCAR-3, with SGC-7901 and in the test with MDA-MB-231 was less than 4.70 throughout.

`O=C(NNc1ccc(F)cc1)c1cccc(NS(=O)(=O)c2cnc(O)nc2O)c1`: the negative logarithm of the IC50 (pIC50) with A549, with OVCAR-3, with SGC-7901 and with MDA-MB-231 was less than 4.70 in each case.

On to `Cc1ccc(C(=O)NNC(=O)c2ccccc2NS(=O)(=O)c2cnc(O)nc2O)cc1`, for which the pIC50 in the test with A549 was less than 4.70; in the test on OVCAR-3 it was 4.89; with SGC-7901 it was 4.81; in the test with MDA-MB-231, less than 4.70.

With `O=C(NNC(=O)c1ccccc1NS(=O)(=O)c1cnc(O)nc1O)c1ccccc1F`, the pIC50 is 5.15 with A549, 4.82 with OVCAR-3, less than 4.70 in the test with SGC-7901 and less than 4.70 in the test with MDA-MB-231.

Take `Cc1ccccc1C(=O)NNC(=O)c1ccccc1NS(=O)(=O)c1cnc(O)nc1O`: the pIC50 with A549 was 5.26; with OVCAR-3 it was less than 4.70; with SGC-7901, 4.89; with MDA-MB-231, 5.25.

As to `O=C(NNc1ccccc1Cl)c1ccccc1NS(=O)(=O)c1cnc(O)nc1O`, the negative-log IC50 (pIC50) in the test with A549 was 5.26; in the test on OVCAR-3, 4.85; with SGC-7901, less than 4.70; in the test on MDA-MB-231, 4.72.

`Cc1cccc(NNC(=O)c2ccccc2NS(=O)(=O)c2cnc(O)nc2O)c1`: the pIC50 with A549, in the test on OVCAR-3, with SGC-7901 and with MDA-MB-231 was less than 4.70 throughout.

In the case of `O=C(NNc1ccc(F)cc1)c1ccc(NS(=O)(=O)c2cnc(O)nc2O)cc1`, the pIC50 in the test with A549, in the test on OVCAR-3, in the test on SGC-7901 and with MDA-MB-231 was less than 4.70 in each case.

In the case of `O=C(NNC(=O)c1cccc(Cl)c1)c1ccc(NS(=O)(=O)c2cnc(O)nc2O)cc1`, the pIC50 in the test with A549 is 5.64; in the test with OVCAR-3, 5.11; with SGC-7901 it was 5.06; in the test with MDA-MB-231, 5.38.

Consider `O=C(NNc1ccccc1F)c1cccc(NS(=O)(=O)c2cnc(O)nc2O)c1`, for which the pIC50 with A549 was 4.95; in the test on OVCAR-3 it was 4.77; in the test with SGC-7901, less than 4.70; in the test with MDA-MB-231, less than 4.70.

For `Cc1cccc(NNC(=O)c2ccc(NS(=O)(=O)c3cnc(O)nc3O)cc2)c1`, the pIC50 in the test with A549, with OVCAR-3, in the test on SGC-7901 and in the test on MDA-MB-231 was less than 4.70 in each case.

Turning to `CCCCOc1ccc(C(=O)NNC(=O)c2cccc(NS(=O)(=O)c3cnc(O)nc3O)c2)cc1`, the pIC50 is 5.11 with A549, 5.04 in the test with OVCAR-3, 5.13 in the test on SGC-7901 and 4.77 in the test with MDA-MB-231.

Take `O=C(NNc1cccc(Cl)c1)c1ccc(NS(=O)(=O)c2cnc(O)nc2O)cc1`: the pIC50 is 5.14 in the test on A549, 5.08 with OVCAR-3, 4.94 in the test with SGC-7901 and 4.76 in the test on MDA-MB-231.

In the case of `O=C(NNc1ccccc1F)c1ccccc1NS(=O)(=O)c1cnc(O)nc1O`, the pIC50 in the test with A549 is 5.02; in the test on OVCAR-3, 5.02; with SGC-7901 it was less than 4.70; in the test with MDA-MB-231, less than 4.70.

As to `O=C(NNc1ccccc1Cl)c1ccc(NS(=O)(=O)c2cnc(O)nc2O)cc1`, the pIC50 with A549 is 5.48; in the test with OVCAR-3, 5.14; in the test with SGC-7901, 5.44; in the test on MDA-MB-231 it was 5.40.

As to `Cc1ccc(C(=O)NNC(=O)c2ccc(NS(=O)(=O)c3cnc(O)nc3O)cc2)cc1`, the pIC50 in the test with A549 was 4.80; in the test on OVCAR-3 it was less than 4.70; with SGC-7901 it was less than 4.70; in the test with MDA-MB-231 it was less than 4.70.

As to `Cc1ccccc1NNC(=O)c1ccccc1NS(=O)(=O)c1cnc(O)nc1O`, the pIC50 with A549, in the test with OVCAR-3, in the test on SGC-7901 and in the test on MDA-MB-231 was less than 4.70 each time.

In the case of `Cc1ccccc1C(=O)NNC(=O)c1ccc(NS(=O)(=O)c2cnc(O)nc2O)cc1`, the pIC50 is 4.82 with A549, less than 4.70 with OVCAR-3, less than 4.70 in the test with SGC-7901 and 5.15 in the test on MDA-MB-231.

Regarding `O=C(NNC(=O)c1cccc(NS(=O)(=O)c2cnc(O)nc2O)c1)c1ccc(F)cc1`, the pIC50 with A549, in the test with OVCAR-3, in the test with SGC-7901 and with MDA-MB-231 was less than 4.70 in each case.

As for `Cc1ccccc1C(=O)NNC(=O)c1cccc(NS(=O)(=O)c2cnc(O)nc2O)c1`, the pIC50 was 5.10 in the test on A549, less than 4.70 in the test with OVCAR-3, less than 4.70 in the test on SGC-7901 and 4.74 in the test on MDA-MB-231.

Regarding `O=C(NNC(=O)c1ccccc1Cl)c1cccc(NS(=O)(=O)c2cnc(O)nc2O)c1`, the pIC50 is 5.43 in the test on A549, 5.14 with OVCAR-3, 5.22 with SGC-7901 and 5.63 in the test on MDA-MB-231.

For `CCCCOc1ccc(C(=O)NNC(=O)c2ccccc2NS(=O)(=O)c2cnc(O)nc2O)cc1`, the pIC50 with A549 was 5.30; with OVCAR-3 it was 5.30; in the test on SGC-7901 it was 5.16; in the test with MDA-MB-231, 5.17.

Take `O=C(NNC(=O)c1ccccc1NS(=O)(=O)c1cnc(O)nc1O)c1ccc(F)cc1`: the pIC50 in the test on A549 is less than 4.70; in the test on OVCAR-3, 4.82; with SGC-7901, less than 4.70; with MDA-MB-231, less than 4.70.

Turning to `O=C(NNc1cccc(Cl)c1)c1cccc(NS(=O)(=O)c2cnc(O)nc2O)c1`, the pIC50 in the test with A549 was 5.18; in the test with OVCAR-3, 5.09; in the test with SGC-7901, 4.93; in the test with MDA-MB-231, 5.11.

For the compound `Cc1ccccc1NNC(=O)c1cccc(NS(=O)(=O)c2cnc(O)nc2O)c1`, the pIC50 in the test with A549 was 4.85; with OVCAR-3, less than 4.70; in the test on SGC-7901 it was less than 4.70; with MDA-MB-231, less than 4.70.

Turning to `O=C(NNC(=O)c1cccc(NS(=O)(=O)c2cnc(O)nc2O)c1)c1cccc(Cl)c1`, the pIC50 in the test with A549 is 5.22; in the test on OVCAR-3, 4.87; in the test on SGC-7901, 5.14; in the test on MDA-MB-231, 5.50.

Take `O=C(NNC(=O)c1ccccc1Cl)c1ccc(NS(=O)(=O)c2cnc(O)nc2O)cc1`: the pIC50 is 5.72 with A549, 5.28 with OVCAR-3, 5.49 in the test with SGC-7901 and 4.86 in the test on MDA-MB-231.

Turning to `Cc1ccccc1NNC(=O)c1ccc(NS(=O)(=O)c2cnc(O)nc2O)cc1`, the pIC50 is 4.84 in the test with A549, less than 4.70 in the test on OVCAR-3, less than 4.70 with SGC-7901 and less than 4.70 in the test with MDA-MB-231.

For `Cc1cccc(NNC(=O)c2cccc(NS(=O)(=O)c3cnc(O)nc3O)c2)c1`, the pIC50 in the test on A549, in the test on OVCAR-3, in the test with SGC-7901 and in the test with MDA-MB-231 was less than 4.70 throughout.

In the case of `CCCCOc1ccc(C(=O)NNC(=O)c2ccc(NS(=O)(=O)c3cnc(O)nc3O)cc2)cc1`, the pIC50 was 5.05 with A549, 4.89 in the test with OVCAR-3, 4.83 in the test on SGC-7901 and 4.92 in the test with MDA-MB-231.

On to `O=C(NNC(=O)c1ccccc1F)c1ccc(NS(=O)(=O)c2cnc(O)nc2O)cc1`, for which the pIC50 with A549 was 5.12; with OVCAR-3, 4.80; in the test with SGC-7901 it was less than 4.70; in the test on MDA-MB-231, less than 4.70.

Consider `O=C(NNC(=O)c1ccccc1F)c1cccc(NS(=O)(=O)c2cnc(O)nc2O)c1`, for which the pIC50 with A549 was 4.97; in the test on OVCAR-3 it was 4.97; in the test on SGC-7901, less than 4.70; in the test on MDA-MB-231 it was less than 4.70.

As to `O=C(NNc1ccccc1F)c1ccc(NS(=O)(=O)c2cnc(O)nc2O)cc1`, the pIC50 with A549 is 4.93; in the test with OVCAR-3 it was less than 4.70; in the test with SGC-7901 it was 4.80; in the test with MDA-MB-231 it was less than 4.70.

On to `O=C(NNc1ccccc1Cl)c1cccc(NS(=O)(=O)c2cnc(O)nc2O)c1`, for which the negative-log IC50 (pIC50) with A549 was 5.84; in the test with OVCAR-3, 5.47; in the test with SGC-7901, 5.64; in the test on MDA-MB-231 it was 5.68.

Turning to `O=C(NNC(=O)c1ccc(NS(=O)(=O)c2cnc(O)nc2O)cc1)c1ccc(F)cc1`, the pIC50 in the test with A549, in the test with OVCAR-3, in the test with SGC-7901 and in the test on MDA-MB-231 was less than 4.70 throughout.

In the case of `Cc1ccc(C(=O)NNC(=O)c2cccc(NS(=O)(=O)c3cnc(O)nc3O)c2)cc1`, the pIC50 is less than 4.70 with A549, less than 4.70 in the test on OVCAR-3, 5.00 in the test with SGC-7901 and less than 4.70 in the test on MDA-MB-231.
